# Legend:
# b-lactamase = settings: commercial b-lactamase inhibitors, for comparison; cited from earlier work
# [1] = target: porcine pancreatic elastase (PPE) (Sus scrofa, UniProt P00772); experiment: IC50 determination, inhibition of porcine pancreatic elastase (PPE); assay type: biochemical; settings: 5 min incubation with the inhibitor
# [2] = target: T1, human leukocyte elastase (HLE) (Homo sapiens, UniProt P08246); experiment: IC50 determination, inhibition of human leukocyte elastase (HLE), hydrolysis of N-(methoxysuccinyl)-L-alanyl-L-alanyl-L-prolyl-L-valine 4-nitroanilide at 410 nm; assay type: biochemical; settings: 5 min incubation with the inhibitor; pH 7.5 Tris buffer
# T1 construct: purchased Elastin Products Company, Inc. (Owensville, Mo.)
# T1 sequence (P08246 30-267): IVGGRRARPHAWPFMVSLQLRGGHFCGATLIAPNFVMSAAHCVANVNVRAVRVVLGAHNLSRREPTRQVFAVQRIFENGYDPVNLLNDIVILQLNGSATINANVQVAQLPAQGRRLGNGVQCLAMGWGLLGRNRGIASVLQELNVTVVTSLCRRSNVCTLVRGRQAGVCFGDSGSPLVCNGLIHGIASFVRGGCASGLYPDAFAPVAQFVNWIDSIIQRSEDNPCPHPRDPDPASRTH
# HLE = target: T2, HLE (Homo sapiens, UniProt P08246); experiment: inhibition of HLE followed as a function of time (FIG. 1); assay type: biochemical; settings: 10-fold molar excess of inhibitor, assayed at regular intervals (2 to 5 minutes)
# T2 construct: chromogenic substrate MeOSuc-AAPV-pNA
# T2 sequence (P08246 30-267): T1 sequence (P08246 30-267)
# Procedure: To further document the rapid, irreversible inhibition of this enzyme at low, nearly stoichiometric ratios of inhibitor to enzyme, for selected compounds, this inhibition was followed as a function of time.
# The data in FIG. 1 were generated by incubating the enzyme with a 10-fold molar excess of inhibitor. Assays of residual enzymatic activity of this mixture were assayed at regular intervals (2 to 5 minutes).
# porcine pancreatic elastase (PPE), sequence (P00772 27-266): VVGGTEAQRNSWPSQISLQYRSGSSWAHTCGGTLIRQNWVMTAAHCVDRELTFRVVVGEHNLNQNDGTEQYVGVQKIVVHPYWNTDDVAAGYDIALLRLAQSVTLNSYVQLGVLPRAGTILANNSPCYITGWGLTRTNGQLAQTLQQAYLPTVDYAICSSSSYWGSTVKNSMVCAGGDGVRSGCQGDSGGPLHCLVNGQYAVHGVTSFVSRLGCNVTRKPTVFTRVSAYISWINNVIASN
compound,measurement,setting,value
O=C(O)[C@H]1/C(=C/CO)O[C@@H]2CC(=O)N21 [clavulanic acid],ratio at which inhibitor must be used,b-lactamase,200 to 1
"CC(=O)OCC1=C(C(=O)OC(c2ccccc2)c2ccccc2)N2C(=O)/C(=C\Br)[C@H]2SC1 [Compound 15, Benzhydryl 7-[(E)-bromomethylene]cephalosporanate]",IC50,[1],9.6 µM
same,IC50,[2],0.39 µM
same,residual HLE activity / inhibition as a function of time,HLE,"very potent, irreversible inhibitors of HLE"
"CC(=O)OCC1=C(C(=O)OC(c2ccccc2)c2ccccc2)N2C(=O)C(=C(Br)Br)[C@H]2S(=O)(=O)C1 [Compound 14, Benzhydryl 7-[dibromomethylene]cephalosporanate sulfone]",IC50,[1],4.8 µM
same,IC50,[2],2.07 µM
same,residual HLE activity / inhibition as a function of time,HLE,"very potent, irreversible inhibitors of HLE"
"CC(=O)OCC1=C(C(=O)OC(c2ccccc2)c2ccccc2)N2C(=O)C(=C(Cl)Cl)[C@H]2SC1 [Compound 22, Benzhydryl 7-[dichloromethylene]cephalosporanate]",IC50,[1],> 10 µM
same,IC50,[2],6.41 µM
same,residual HLE activity / inhibition as a function of time,HLE,"very potent, irreversible inhibitors of HLE"
"CC(=O)/C=C1/C(=O)N2C(C(=O)OC(c3ccccc3)c3ccccc3)=C(COC(C)=O)CS[C@H]12 [Compound 28, Benzhydryl 7-[(Z)-acetylmethylene]cephalosporanate]",IC50,[1],> 10 µM
same,IC50,[2],4.27 µM
same,residual HLE activity / inhibition as a function of time,HLE,leveling off and allowing the enzyme to regain its activity
"COC(=O)/C=C1/C(=O)N2C(C(=O)OC(c3ccccc3)c3ccccc3)=C(COC(C)=O)CS[C@H]12 [Compound 24, Benzhydryl 7-[(Z)-methoxycarbonylmethylene]cephalosporanate]",IC50,[1],> 10 µM
same,IC50,[2],2.6 µM
same,residual HLE activity / inhibition as a function of time,HLE,"very potent, irreversible inhibitors of HLE"
"CC(=O)OCC1=C(C(=O)OC(c2ccccc2)c2ccccc2)N2C(=O)/C(=C\Br)[C@H]2S(=O)(=O)C1 [Compound 16, Benzhydryl 7-[(E)-bromomethylene]cephalosporanate sulfone]",IC50,[1],2.49 µM
same,IC50,[2],3.36 µM
same,residual HLE activity / inhibition as a function of time,HLE,leveling off and allowing the enzyme to regain its activity
"CC(=O)OCC1=C(C(=O)OC(c2ccccc2)c2ccccc2)N2C(=O)C(=C(Br)Br)[C@H]2SC1 [Compound 13, Benzhydryl 7-[dibromomethylene]cephalosporanate]",IC50,[1],6.42 µM
same,IC50,[2],0.26 µM
same,residual HLE activity / inhibition as a function of time,HLE,extremely rapid and efficient inhibitor of HLE

# Source: US5760027A, “Use of 7-alkylidene cephalosporins to inhibit elastase activity” (Research Corporation Technologies, Inc., priority 1996, dated 1998)
